Measured values reported in patent publication US4049497A (priority 1974, dated 1977).
“And” between values parts separate entries of the source, which are not always exact repeats. Equal entries are not always repeated.

Tests used:
[1] = system: Staphylococcus aureus Smith; test: Minimum inhibitory concentration on nutrient agar plates, 37° C., 17 hours; format: cell-based
[2] = system: Staphylococcus aureus 209P; test: as above; format: cell-based
Piricularia oryzae = format: cell-based
Xanthomonas citri = test: Minimum inhibitory concentration on nutrient agar plates, 37° C., 17 hours; format: cell-based
[3] = system: Vibrio anguillarum NCBM 6; test: as above; format: cell-based
[4] = system: Aeromonas salmonecida ATCC 14174; test: as above; format: cell-based
[5] = Acute toxicity, intraperitoneal injection in mice; conditions: for toxicity: animal and man, as shown by LD50 in mice; for LD50: mice, intraperitoneal, 0.25-0.5% in 10% dimethylsulfoxide-water
Escherichia coli W677 = test: Minimum inhibitory concentration on nutrient agar plates, 37° C., 17 hours; format: cell-based
[6] = system: Escherichia coli JR66/W677; test: as above; format: cell-based
leukemia L-1210 cells = test: Chemotherapeutic effect against leukemia L-1210 in mice (survival); format: in vivo, mice (CDF 1 strain); conditions: i.p. once daily for 10 days
[7] = system: Pseudomonas aeruginosa No. 12; test: Minimum inhibitory concentration on nutrient agar plates, 37° C., 17 hours; format: cell-based
[8] = system: Klebsiella pneumoniae PCI 602; test: as above; format: cell-based
Aspergillus niger = test: Minimum inhibitory concentration on nutrient agar plates with 1% glucose, 27° C., 40 hours; format: cell-based
[9] = Partition between n-butanol and water; conditions: pH value of 2 to 7
[10] = system: Bacillus subtilis PCI 219; test: Minimum inhibitory concentration on nutrient agar plates, 37° C., 17 hours; format: cell-based
Saccharomyces cerevisiae = test: Minimum inhibitory concentration on nutrient agar plates with 1% glucose, 27° C., 40 hours; format: cell-based
[11] = Stability of activity in 50% aqueous ethanol, room temperature, 16 hours; storage and methanol stability; conditions: for stability in 50% aqueous ethanol: 50% aqueous ethanol of pH 2.5; for activity reduced to: 50% aqueous ethanol of pH 2.5, room temperature, 16 hours; for stability as solid powder: cold and dark place
Candida albicans 3147 = test: Minimum inhibitory concentration on nutrient agar plates with 1% glucose, 27° C., 40 hours; format: cell-based
[12] = system: various bacteria and fungi; test: Antibacterial and antifungal spectrum (overall); format: cell-based
Xanthomonas oryzae = format: cell-based; conditions: 37° C., 17 hours
Escherichia coli K-12 = test: Minimum inhibitory concentration on nutrient agar plates, 37° C., 17 hours; format: cell-based
[13] = system: Staphylococcus aureus or Escherichia coli; test: Standard cup-plate assay of potency
Escherichia coli NIHJ = test: Minimum inhibitory concentration on nutrient agar plates, 37° C., 17 hours; format: cell-based
[14] = isolated colorless powder (Examples 3-6)

Question: For `COc1cc2c(cc1O)N=C[C@@H]1CC[C@H](O)N1C2=O` [neothramycin A], which “Minimum Inhibitory Concentration” value [1] is on record?
Answer: The value was 50 Mcg./ml.

Question: What about the “Minimum Inhibitory Concentration” value [2] of the same molecule?
Answer: The value was greater than 100 Mcg./ml.

Question: What about the “Minimum Inhibitory Concentration” value (Piricularia oryzae) of the same molecule?
Answer: The value was 50 Mcg./ml.

Question: And the “Minimum Inhibitory Concentration” value (Xanthomonas citri)?
Answer: Its value is greater than 100 Mcg./ml.

Question: And the “Minimum Inhibitory Concentration” value [3]?
Answer: Its value is 50 Mcg./ml.

Question: What about the “Minimum Inhibitory Concentration” value [4] of the same molecule?
Answer: Its value is 25 Mcg./ml.

Question: And the toxicity [5]?
Answer: The toxicity was “low toxicity”.

Question: What about the LD50 [5] of the same molecule?
Answer: Its LD50 is 20 to 30 mg/kg.

Question: What about the “Minimum Inhibitory Concentration” value (Escherichia coli W677) of the same molecule?
Answer: The value was 50 Mcg./ml.

Question: And the “Minimum Inhibitory Concentration” value [6]?
Answer: The value was 100 Mcg./ml.

Question: And the “effects on the survival ratio” value (leukemia L-1210 cells)?
Answer: Its value is “highly favorable effects”.

Question: And the “Minimum Inhibitory Concentration” value [7]?
Answer: Its value is greater than 100 Mcg./ml.

Question: And the “Minimum Inhibitory Concentration” value [8]?
Answer: The value was 50 Mcg./ml.

Question: And the “Minimum Inhibitory Concentration” value (Aspergillus niger)?
Answer: The value was 100 Mcg./ml.

Question: And the “partition coefficient in n-butanol/water” value [9]?
Answer: The value was “greater than 5”.

Question: And the “Minimum Inhibitory Concentration” value [10]?
Answer: Its value is 100 Mcg./ml.

Question: What about the “Minimum Inhibitory Concentration” value (Saccharomyces cerevisiae) of the same molecule?
Answer: Its value is 50 Mcg./ml.

Question: What about the “stability in 50% aqueous ethanol” value [11] of the same molecule?
Answer: The value was “unstable”.

Question: What about the “activity reduced to” value [11] of the same molecule?
Answer: Its value is 25%.

Question: And the “stability as solid powder” value [11]?
Answer: The value was “stable for a long period of time”.

Question: And the “Minimum Inhibitory Concentration” value (Candida albicans 3147)?
Answer: Its value is greater than 100 Mcg./ml.

Question: And the “antibacterial and antifungal activity” value [12]?
Answer: The value was “low antibacterial and antifungal activity”.

Question: What about the “Minimum Inhibitory Concentration” value (Xanthomonas oryzae) of the same molecule?
Answer: Its value is 50 Mcg./ml.

Question: What about the “Minimum Inhibitory Concentration” value (Escherichia coli K-12) of the same molecule?
Answer: Its value is 100 Mcg./ml.

Question: And the potency [13, 14]?
Answer: Its potency is 1000 u./mg.

Question: And the potency ([13]; pure neothramycin A from Example 3 as authentic sample)?
Answer: The potency was 1000 units per mg.

Question: What about the “Minimum Inhibitory Concentration” value (Escherichia coli NIHJ) of the same molecule?
Answer: The value was 100 Mcg./ml.

Question: For `COc1cc2c(cc1O)N=C[C@@H]1CC[C@@H](O)N1C2=O` [neothramycin B], which “Minimum Inhibitory Concentration” value [1] is on record?
Answer: The value was 100 Mcg./ml.

Question: And the “Minimum Inhibitory Concentration” value [2]?
Answer: The value was greater than 100 Mcg./ml.

Question: What about the “Minimum Inhibitory Concentration” value (Piricularia oryzae) of the same molecule?
Answer: The value was greater than 100 Mcg./ml.

Question: And the “Minimum Inhibitory Concentration” value (Xanthomonas citri)?
Answer: Its value is greater than 100 Mcg./ml.

Question: And the “Minimum Inhibitory Concentration” value [3]?
Answer: The value was 100 Mcg./ml.

Question: What about the “Minimum Inhibitory Concentration” value [4] of the same molecule?
Answer: The value was 50 Mcg./ml.

Question: And the toxicity [5]?
Answer: The toxicity was “low toxicity”.

Question: What about the LD50 [5] of the same molecule?
Answer: Its LD50 is 20 to 30 mg/kg.

Question: What about the “Minimum Inhibitory Concentration” value (Escherichia coli W677) of the same molecule?
Answer: The value was 100 Mcg./ml.

Question: What about the “Minimum Inhibitory Concentration” value [6] of the same molecule?
Answer: The value was greater than 100 Mcg./ml.

Question: And the “effects on the survival ratio” value (leukemia L-1210 cells)?
Answer: Its value is “highly favorable effects”.

Question: What about the “Minimum Inhibitory Concentration” value [7] of the same molecule?
Answer: Its value is greater than 100 Mcg./ml.

Question: And the “Minimum Inhibitory Concentration” value [8]?
Answer: Its value is 100 Mcg./ml.

Question: What about the “Minimum Inhibitory Concentration” value (Aspergillus niger) of the same molecule?
Answer: The value was greater than 100 Mcg./ml.

Question: What about the “partition coefficient in n-butanol/water” value [9] of the same molecule?
Answer: The value was “greater than 5”.

Question: What about the “Minimum Inhibitory Concentration” value [10] of the same molecule?
Answer: The value was greater than 100 Mcg./ml.

Question: What about the “Minimum Inhibitory Concentration” value (Saccharomyces cerevisiae) of the same molecule?
Answer: Its value is greater than 100 Mcg./ml.

Question: And the “stability in 50% aqueous ethanol” value [11]?
Answer: The value was “unstable”.

Question: What about the “activity reduced to” value [11] of the same molecule?
Answer: The value was 22%.

Question: What about the “stability as solid powder” value [11] of the same molecule?
Answer: Its value is “stable for a long period of time”.

Question: And the “Minimum Inhibitory Concentration” value (Candida albicans 3147)?
Answer: The value was greater than 100 Mcg./ml.

Question: What about the “antibacterial and antifungal activity” value [12] of the same molecule?
Answer: The value was “low antibacterial and antifungal activity”.

Question: What about the “Minimum Inhibitory Concentration” value (Xanthomonas oryzae) of the same molecule?
Answer: The value was 100 Mcg./ml.

Question: What about the “Minimum Inhibitory Concentration” value (Escherichia coli K-12) of the same molecule?
Answer: Its value is 100 Mcg./ml.

Question: What about the potency [13, 14] of the same molecule?
Answer: Its potency is 620 u./mg. and 835 u./mg.

Question: What about the “Minimum Inhibitory Concentration” value (Escherichia coli NIHJ) of the same molecule?
Answer: Its value is 100 Mcg./ml.
